We go through one substance from article PMC5793121 (Toxins, 2018).

Entries after “also recorded” stand apart in the source; their conditions may differ. Like-named read-outs stand apart in the source and are kept apart here. No end group written: not given here.

Series [1] deals with human neuronal heteromeric α3-containing nAChRs (α3β2, α3β4, etc.). It counts as cell-based.
For series [2] the following is noted: for AUC(0 → t) / Cmax / T1/2: single, [125I]-Az, blood radioactivity, 5 animals per time point. On the procedure:
The pharmacokinetic study was performed using 163 male ICR mice. Four experimental groups with 40 animals in each were formed. Three intact mice were used as control animals. The animals of the first two experimental groups were intravenously injected with 0.25 and 0.50 mg/kg [^125I]-Az, respectively. The animals of the other two experimental groups were intramuscularly injected with 0.25 and 0.50 mg/kg [^125I]-Az, respectively. To estimate Az elimination rate, animal blood samples were taken from the orbital sinus 5, 15, 30, 60 min and 1, 2, 4 and 24 h after [^125I]-Az administration. The obtained blood samples were weighed. For each indicated time point, [^125I]-Az concentration was calculated as a mean value in blood samples of five animals. The radioactivity (cpm) in the blood samples was counted using a Wallac 1470 WIZARD® Gamma Counter (Perkin Elmer, Waltham, MA, USA). […] Radioactivity data (cpm) were re-calculated to the concentration of [^125I]-Az in the obtained blood samples. The specific pharmacokinetic parameters (AUC (0 → t), Cmax, T1/2) of [^125I]-Az were estimated.

Take “DNWWPKPPHQGPRPPRPRPKP-NH2 [Az, azemiopsin]”: in series [1], the “activity against α3-containing nAChRs (nicotine-evoked calcium responses)” value is reported as “no Az activity; also recorded: no effect”. Moreover, the excretion half-life in series [2] (depending on administration way (iv or im), mice) was 15 to 40 min. The “AUC(0 → t)” value in series [2] (im 0.25 mg/kg, male ICR mice) came to 328 ng·h/mL; in series [2] (im 0.50 mg/kg, male ICR mice), 622 ng·h/mL; in series [2] (iv 0.25 mg/kg, male ICR mice), 214 ng·h/mL; in series [2] (iv 0.50 mg/kg, male ICR mice), 542 ng·h/mL. Besides, the Cmax in series [2] (im 0.25 mg/kg, male ICR mice) came to 278 ng/mL; in series [2] (im 0.50 mg/kg, male ICR mice), 257 ng/mL; in series [2] (iv 0.25 mg/kg, male ICR mice), 517 ng/mL; in series [2] (iv 0.50 mg/kg, male ICR mice) it was 745 ng/mL. Besides, the T1/2 in series [2] (im 0.25 mg/kg, male ICR mice) came out at 18 min; in series [2] (im 0.50 mg/kg, male ICR mice), 40.8 min; in series [2] (iv 0.25 mg/kg, male ICR mice) it was 15.6 min; in series [2] (iv 0.50 mg/kg, male ICR mice), 17.4 min. Besides, in series [2] (intramuscular administration, 0.25 and 0.5 mg/kg, male ICR mice), the “half-life T1/2” value is 20 to 40 min.

Broadly, the Cmax is the highest concentration seen after dosing.
